Consider 26 molecules from ChEMBL document CHEMBL5150042, “Phenolic furanochromene hydrazone derivatives: Synthesis, antioxidant activity, ferroptosis inhibition, DNA cleavage and DNA molecular docking studies” (Bioorg Med Chem, 2022).

The source made the active and inactive calls. The rule behind the calls is not given here.

Test [1] can be described thus: Antioxidant activity assessed as DPPH radical scavenging activity incubated for 30 mins under dark condition by microplate reader based assay. It counts as functional. Background: Loss of DPPH colour is used to gauge radical scavenging.
Test [2] can be described thus: Antioxidant activity assessed as trolox equivalent of Cu2+ reducing activity incubated for 30 mins by CUPRAC assay relative to trolox. Format: functional.
The subject of another test is HaCaT. Briefly: Anti-ferroptotic activity against erastin-induced ferroptosis in human HaCaT cells assessed as cell viability at 5 uM pretreated with compound for 4 hrs followed by erastin challenge for 24 hrs by MTT assay (reference value: 45%). Particulars: time 28 hrs, read-out: Activity. Format: functional.
The test system of test [3] is DNA. Briefly: Induction of copper-mediated Escherichia coli supercoiled pBR322 DNA cleavage assessed as increase in open circular form of DNA with small amount of linear form at 1 mM incubated for 24 hrs in presence of Cu2+ ion by agarose gel electrophoresis analysis. It counts as nucleic-acid assay.
Test [4] concerns DNA. Kind of test: Induction of copper-mediated Escherichia coli supercoiled pBR322 DNA cleavage at 100 uM incubated for 24 hrs in presence of Cu2+ ion by agarose gel electrophoresis analysis. It counts as nucleic-acid assay.
For test [5], the system named is DNA. Kind of test: Induction of copper-mediated Escherichia coli supercoiled pBR322 DNA cleavage assessed as increase in cleaved DNA with significant amount of supercoiled form at 1 mM incubated for 24 hrs in presence of Cu2+ ion by agarose gel electrophoresis analysis. It counts as nucleic-acid assay.
Test [6] deals with DNA. Kind of test: Induction of copper-mediated Escherichia coli supercoiled pBR322 DNA cleavage assessed as increase in open circular form of DNA at 1 mM incubated for 24 hrs in presence of Cu2+ ion by agarose gel electrophoresis analysis. Format: nucleic-acid assay.
In test [7] the test system is DNA. Kind of test: Induction of copper-mediated Escherichia coli supercoiled pBR322 DNA cleavage assessed as cleavage of DNA into smaller fragments at 1 mM incubated for 24 hrs in presence of Cu2+ ion by agarose gel electrophoresis analysis. Format: nucleic-acid assay.
For test [8], the system named is DNA. Briefly: Induction of copper-mediated Escherichia coli supercoiled pBR322 DNA cleavage assessed as increase in open circular form and linear form of DNA at 100 uM incubated for 24 hrs in presence of Cu2+ ion by agarose gel electrophoresis analysis. It counts as nucleic-acid assay.
The test system of test [9] is DNA. Kind of test: Induction of Escherichia coli supercoiled pBR322 DNA cleavage incubated for 90 mins in presence of Cu2+ ion by agarose gel electrophoresis analysis. It counts as nucleic-acid assay. Particulars: dose 3.9-500 µM, DDE = dose-dependent effect.

Consider `COc1ccc(O)c(/C=N/NC(=O)c2cc3ccc4c(c3o2)C=CC(C)(C)O4)c1`, for which the IC50 – broadly, the midpoint of a concentration-inhibition curve – in test [1] (read-out: IC50) was above 100 µM. Moreover, in test [2], the Ratio is 1.22. The viability at 5 µM with HaCaT amounted to 44%. In addition, the result with DNA [3] was Active.

As for `COc1cc(/C=N/NC(=O)c2cc3ccc4c(c3o2)C=CC(C)(C)O4)cc([N+](=O)[O-])c1O`, the IC50 in test [1] (read-out: IC50) is above 100 µM. Also, the Ratio in test [2] was 1.52. Besides, the viability at 5 µM with HaCaT was 59%. In addition, the outcome with DNA [3] and in the test with DNA [4] was Active.

Take `COc1ccc(/C=N/NC(=O)c2cc3ccc4c(c3o2)C=CC(C)(C)O4)c(O)c1`: in [1] (read-out: IC50), the IC50 stood at 67.4 µM. Moreover, in test [2], the Ratio is 1.01. The viability at 5 µM with HaCaT was above 50%. Further, the result in the test with DNA [3] was Active.

Regarding `CC1(C)C=Cc2c(ccc3cc(C(=O)N/N=C/c4cc(O)c(O)c(O)c4)oc23)O1`, in test [1] (read-out: IC50), the IC50 was 27.9 µM. Also, the Ratio in test [2] came out at 2.59. Besides, the viability at 5 µM in the test on HaCaT came out at 56%. Further, the result in the test on DNA [5] was Active.

`CC1(C)C=Cc2c(ccc3cc(C(=O)N/N=C/c4cccc(O)c4)oc23)O1`: the outcome in the test with DNA [6] and in the test on DNA [4] was Active.

On to `CC1(C)C=Cc2c(ccc3cc(C(=O)N/N=C/c4ccccc4O)oc23)O1`, for which the Ratio in test [2] came out at 0.48. The viability at 5 µM in the test on HaCaT came to 62%. Further, in the test on DNA [6], the outcome was Active.

Consider `COc1cc(/C=N/NC(=O)c2cc3ccc4c(c3o2)C=CC(C)(C)O4)cc(Br)c1O`, for which the IC50 in test [1] (read-out: IC50) was above 100 µM. For the same molecule, the Ratio in test [2] turned out to be 1.09. For the same molecule, the viability at 5 µM in the test with HaCaT was 59%. Also, the outcome with DNA [3] and with DNA [4] was Active.

As to `CC1(C)C=Cc2c(ccc3cc(C(=O)N/N=C/c4c(O)cc(O)cc4O)oc23)O1`, the IC50 in test [1] (read-out: IC50) amounted to 81 µM. In [2], the Ratio was 1.36. Further, the viability at 5 µM in the test with HaCaT stood at 56%. For the same molecule, the result in the test on DNA [5] was Active.

With `O=C1O[C@H]([C@@H](O)CO)C(O)=C1O` [ASCORBIC ACID], the half-maximal inhibitory concentration (IC50) in [1] (read-out: IC50) was found to be 51.2 µM. Also, the Ratio in [2] was determined as 0.72.

On to `CC1(C)C=Cc2c(ccc3cc(C(=O)N/N=C/c4ccc(O)cc4)oc23)O1`, for which the IC50 in test [1] (read-out: IC50) is above 100 µM. For the same molecule, the Ratio in test [2] is 0.79. The outcome with DNA [6] and in the test on DNA [4] was Active.

Consider `COc1cc(/C=N/NC(=O)c2cc3ccc4c(c3o2)C=CC(C)(C)O4)ccc1O`, for which, in [1] (read-out: IC50), the IC50 came to 87.8 µM. Further, the Ratio in test [2] came out at 1.75. Also, the viability at 5 µM with HaCaT came to 44%. Moreover, the outcome in the test with DNA [3] and in the test on DNA [4] was Active.

On to `Cc1ccc(O)c(/C=N/NC(=O)c2cc3ccc4c(c3o2)C=CC(C)(C)O4)c1`, for which the IC50 in [1] (read-out: IC50) is above 100 µM. Besides, in test [2], the Ratio worked out at 0.95. Further, in the test on HaCaT, the viability at 5 µM was 62%. The result with DNA [3] was Active.

In the case of `O=c1c(O)c(-c2ccc(O)c(O)c2)oc2cc(O)ccc12` [FISETIN], the viability at 5 µM in the test on HaCaT was determined as 70%.

As for `COc1ccc(/C=N/NC(=O)c2cc3ccc4c(c3o2)C=CC(C)(C)O4)cc1O`, the IC50 in test [1] (read-out: IC50) is above 100 µM. Further, the Ratio in test [2] amounted to 1.36. Moreover, the viability at 5 µM in the test on HaCaT came to 44%. Also, the result in the test on DNA [3] and in the test on DNA [4] was Active.

`CC1(C)C=Cc2c(ccc3cc(C(=O)N/N=C/c4ccc(O)c(O)c4)oc23)O1`: in [1] (read-out: IC50), the IC50 stood at 5.92 µM. In addition, in [2], the Ratio was 3.97. Besides, the viability at 5 µM in the test with HaCaT was found to be 60%. Moreover, the result with DNA [7] and with DNA [8] was Active. Also, the Activity entry with DNA [9] is “Dde”.

Consider `Cc1cc(/C=N/NC(=O)c2cc3ccc4c(c3o2)C=CC(C)(C)O4)cc(C)c1O`, for which, in [1] (read-out: IC50), the IC50 was 61.2 µM. Besides, the Ratio in [2] stood at 1.11. In the test with HaCaT, the viability at 5 µM worked out at 50%. In addition, the result in the test on DNA [3] and in the test with DNA [4] was Active.

With `CC1(C)C=Cc2c(ccc3cc(C(=O)N/N=C/c4cc(O)ccc4O)oc23)O1`, the IC50 in test [1] (read-out: IC50) came to 9.1 µM. For the same molecule, the Ratio in test [2] was found to be 1.8. Also, the viability at 5 µM in the test with HaCaT came to 69%. Moreover, in the test on DNA [6], the outcome was Active.

For `COc1cccc(/C=N/NC(=O)c2cc3ccc4c(c3o2)C=CC(C)(C)O4)c1O`, the IC50 in test [1] (read-out: IC50) is above 100 µM. In [2], the Ratio was found to be 0.85. Further, the viability at 5 µM in the test with HaCaT was found to be 44%. In the test with DNA [3], the result was Active.

Consider `CC1(C)C=Cc2c(ccc3cc(C(=O)N/N=C/c4ccc(O)cc4O)oc23)O1`, for which the IC50 in test [1] (read-out: IC50) came out at 70.1 µM. Also, the Ratio in test [2] was 1.42.

As to `COc1cc(/C=N/NC(=O)c2cc3ccc4c(c3o2)C=CC(C)(C)O4)cc(OC)c1O`, the IC50 entry in [1] was “Nd(Insoluble)”. For the same molecule, in test [2], the Ratio stood at 2.22. For the same molecule, the viability at 5 µM in the test on HaCaT was found to be 57%. Also, the result in the test with DNA [3] and in the test on DNA [4] was Active.

Consider `COc1cc(O)c(/C=N/NC(=O)c2cc3ccc4c(c3o2)C=CC(C)(C)O4)c(OC)c1`, for which the IC50 in [1] (read-out: IC50) was above 100 µM. For the same molecule, in test [2], the Ratio was 0.97. Further, in the test with HaCaT, the viability at 5 µM turned out to be 41%. In addition, the outcome in the test on DNA [3] was Active.

For `CC1(C)C=Cc2c(ccc3cc(C(=O)N/N=C/c4ccc(O)c(O)c4O)oc23)O1`, in test [1] (read-out: IC50), the IC50 was 10.1 µM. In [2], the Ratio was 2.89. Besides, the viability at 5 µM in the test on HaCaT came out at 70%. For the same molecule, the result in the test on DNA [6] and in the test on DNA [8] was Active.

For `CC1(C)C=Cc2c(ccc3cc(C(=O)N/N=C/c4cc(O)cc(O)c4)oc23)O1`, the IC50 in test [1] (read-out: IC50) is above 100 µM. Moreover, the Ratio in test [2] stood at 1.27. Further, the outcome with DNA [6] and in the test on DNA [4] was Active.

As to `CC1(C)C=Cc2c(ccc3cc(C(=O)N/N=C/c4cc(O)c(O)cc4O)oc23)O1`, the IC50 in test [1] (read-out: IC50) came to 24.3 µM. Also, the Ratio in test [2] was 2.43. For the same molecule, the viability at 5 µM in the test with HaCaT is 56%. Also, in the test on DNA [7], the outcome was Active.

With `COc1cc(/C=N/NC(=O)c2cc3ccc4c(c3o2)C=CC(C)(C)O4)cc(I)c1O`, the IC50 in test [1] (read-out: IC50) is above 100 µM. The Ratio in [2] worked out at 0.99. Also, the viability at 5 µM in the test on HaCaT was determined as 59%. The result with DNA [3] and in the test with DNA [4] was Active.

As for `CC1(C)C=Cc2c(ccc3cc(C(=O)N/N=C/c4cccc(O)c4O)oc23)O1`, the IC50 in test [1] (read-out: IC50) is 6.04 µM. Also, in test [2], the Ratio worked out at 1.75. Also, the outcome with DNA [5] was Active.
